Where “and” joins values, the source holds several entries; their conditions need not be identical. Identical values can stand only once. Counter-ions that a name gives are not always drawn.
Legend:
[1] = test system: Spontaneously Hypertensive Rats; assay: Diuretic activity in spontaneously hypertensive rats; assay type: in vivo, male spontaneously hypertensive rats of Okamoto strain; settings: 0-5 hour urine
Procedure: The diuretic activity of the compounds of this invention was determined according to the method of Chan, P. S. and Poorvin, D., Sequential method for combined screening antihypertensive and diuretic agents in the same spontaneously hypertensive rat. Clinical and Experimental Hypertension, 1 (6), 817-830 (1979).
Male spontaneously hypertensive rats of Okamoto strain, 16 weeks old, Taconic Farms Inc., were used in the test. These rats were kept on Purina laboratory chow and tap water ad libitum for 8 weeks before use. The male adult rats (about 300 g) were dosed by gavage with a test compound at 100 mg/kg at zero hour with the exception of one male adult rat in which the test compound dosage was 50 mg/kg. The test compound was suspended in 3% preboiled starch at 50 mg/ml. Each rat was put in metabolism cage. The 0-5 hour urine was collected and urinary sodium and potassium were determined using a Beckman Astra 4.

plasma renin activity = assay: Inhibition of evoked increase of plasma renin activity (PRA) in conscious rats; assay type: in vivo, male Wistar rats; settings: oral, 30 min before provocative treatment, Wistar rats
Procedure: Inhibition of evoked increase of plasma renin activity was determined by the following test.
Compounds were tested for their ability to prevent drug-induced elevation of plasma renin activity (PRA) in concious, male Wistar rats (180-200 g, Charles River Lab.). PRA elevation was induced by a combined oral provocative treatment (C) of hydrochlorothiazide (10 mg/kg) and 1-(3-benzoyl-3-mercapto-2-methylpropionyl-L-proline, acetate (U.S. Pat. No. 4,226,775) (1 mg/kg), prepared by compounding in a mortar and pestle with preboiled 3% starch suspension. This treatment provided the daily maximum PRA. The daily minimum PRA was obtained from rats given oral starch suspension (S) alone. The magnitude of drug effect on PRA elevation was ascertained from rats pretreated orally with test agent (D), at the indicated doses, 30 minutes prior to administration of provocative treatment (C). The test agent was also compounded in preboiled 3% starch suspension. The dose volumes for both pretreatment and provocative treatment were 2 ml/kg. One hour after provocative treatment the rats were sacrificed by decapitation and the first 3 seconds of blood collected in two chilled vacutainer tubes containing 40 μl of 150 mg/ml tripotassium EDTA. The plasmas, which were obtained by centrifugation for 20 minutes at 4° C. and 3000×G, were incubated (one of each pair at 37° C., the other at 4° C.) at pH 6.8 in 50 mM phosphate buffer to produce angiotensin I. The incubates contained peptidase inhibitors to prevent angiotensin I degradation and the incubation buffer contained 1 mg/ml lysozyme (Sigma Grade III) used as an antiabsorbant. The incubates were diluted 20 fold in cold 100 mM tris buffer (pH adjusted to 7.4 with glacial acetic acid) also containing 1 mg/ml lysozyme, and then frozen. Diluted incubates were assayed within 3 days for angiotensin I content by radioimmunoassay according to a modification of the method of Haber, et al., J. Clin. Endocrin., 29, 1349-1355 (1969).
PRA is calculated as follows:
PRA([…])=PRA 37° C.-PRA 4° C.
Percent inhibition of PRA elevation is calculated as follows: [formula]

Stability in solution = assay type: physicochemical
[2] = 100 mg/kg by gavage, hydrobromide
[3] = 100 mg/kg by gavage, hydrochloride

SMILES | Potassium (urinary) ([1]; 100 mg/kg by gavage) [MEQ/5 Hours] | Sodium (urinary) ([1]; 100 mg/kg by gavage) [MEQ/5 Hours] | Volume (urine) ([1]; 100 mg/kg by gavage) [mL] | also measured
N=P1(c2ccccc2)c2ccccc2Oc2ccccc21 [10,10-Dihydro-10-imino-10-phenyl-10H-phenoxaphosphine, hydrobromide] |  |  |  | Potassium (urinary) [1, 2]: 0.26 MEQ/5 Hours; Sodium (urinary) [1, 2]: 1.12 MEQ/5 Hours; Volume (urine) [1, 2]: 8.0 mL
N=P1(c2ccccc2)c2ccccc2Oc2ccccc21 [10,10-Dihydro-10-imino-10-phenyl-10H-phenoxaphosphine, sulfa] [10,10-Dihydro-10-imino-10-phenyl-10H-phenoxaphosphine, sulfate] | 0.18 | 1.56 | 9.8 | Percent Inhibition of Plasma Renin Elevation, Av. % Inhibition (plasma renin activity; 1 mg/kg): 38%; Percent Inhibition of Plasma Renin Elevation, Av. % Inhibition (plasma renin activity; 4 mg/kg): 31% and 42%; Percent Inhibition of Plasma Renin Elevation, Av. % Inhibition (plasma renin activity; 8 mg/kg): 67%; stability in solution (Stability in solution): stable in solution
C=CCOC(=O)N=P1(c2ccccc2)c2ccccc2Oc2ccccc21 [10,10-Dihydro-10-phenyl-10-[[(2-propenyloxy)carbonyl]imino]-10H-phenoxaphosphine] | 0.61 | 1.27 | 12.0 | 
O=C(N=P1(c2ccccc2)c2ccccc2Oc2ccccc21)OC1CCCC1 [10-[[(Cyclopentyloxy)carbonyl]imino]-10,10-dihydro-10-phenyl-10H-phenoxaphosphine] | 0.60 | 1.71 | 14.0 | 
O=C(N=P1(c2ccccc2)c2ccccc2Oc2ccccc21)OCc1ccccc1 [10,10-Dihydro-10-phenyl-10-[[(phenylmethoxy)carbonyl]imino]-10H-phenoxaphosphine] | 0.56 | 1.32 | 12.3 | 
C#CCOC(=O)N=P1(c2ccccc2)c2ccccc2Oc2ccccc21 [10,10-Dihydro-10-phenyl-10-[[(2-propynyloxy)carbonyl]imino]-10H-phenoxaphosphine] | 0.61 | 1.13 | 10.5 | 
N=P1(c2ccccc2)c2ccccc2Oc2ccccc21 [10,10-Dihydro-10-imino-10-phenyl-10H-phenoxaphosphine, bis(t] [10,10-Dihydro-10-imino-10-phenyl-10H-phenoxaphosphine, bis(trifluoroacetate)] | 0.66 | 1.16 | 12.5 | 
CCOC(=O)N=P1(c2ccccc2)c2ccccc2Oc2ccccc21 [10,10-Dihydro-10-[(ethoxycarbonyl)imino]-10-phenyl-10H-phenoxaphosphine] | 0.49 | 2.20 | 19.0 | Percent Inhibition of Plasma Renin Elevation, Av. % Inhibition (plasma renin activity; 1 mg/kg): 33%; Percent Inhibition of Plasma Renin Elevation, Av. % Inhibition (plasma renin activity; 2 mg/kg): 54%; Percent Inhibition of Plasma Renin Elevation, Av. % Inhibition (plasma renin activity; 4 mg/kg): 78%; Percent Inhibition of Plasma Renin Elevation, Av. % Inhibition (plasma renin activity; 8 mg/kg): 91%; Percent Inhibition of Plasma Renin Elevation, Av. % Inhibition (plasma renin activity; 25 mg/kg): 84%
N=P1(c2ccccc2)c2ccccc2Oc2ccccc21 [10,10-Dihydro-10-imino-10-phenyl-10H-phenoxaphosphine, hydrochloride] |  |  |  | Potassium (urinary) [1, 3]: 0.59 MEQ/5 Hours; Sodium (urinary) [1, 3]: 2.01 MEQ/5 Hours; Volume (urine) [1, 3]: 16.5 mL
O=C(N=P1(c2ccccc2)c2ccccc2Oc2ccccc21)OC1CCOC1 (stereo not drawn) [10,10-Dihydro-10-phenyl-10-[[[(tetrahydro-3-furanyl)-oxy]carbonyl]imino]-10H-phenoxaphosphine] | 0.73 | 1.49 | 14.3 | 
COC(=O)N=P1(c2ccccc2)c2ccccc2Oc2ccccc21 [10,10-Dihydro-10-[(methoxycarbonyl)imino]-10-phenyl-10H-phenoxaphosphine] | 0.74 | 1.48 | 14.0 | 
O=C(N=P1(c2ccccc2)c2ccccc2Oc2ccccc21)OCc1cccnc1 [10,10-Dihydro-10-phenyl-10-[[(3-pyridylmethoxy)carbonyl]imino]-10H-phenoxaphosphine] | 0.59 | 2.61 | 20.5 | 
O=C(N=P1(c2ccccc2)c2ccccc2Oc2ccccc21)OCc1ccncc1 [10,10-dihydro-10-phenyl-10-[[(4-pyridylmethoxy)carbonyl]imino]-10H-phenoxaphosphine] | 0.40 | 2.28 | 18.0 | 
CC(C)OC(=O)N=P1(c2ccccc2)c2ccccc2Oc2ccccc21 [10,10-Dihydro-10-[[(1-methylethoxy)carbonyl]imino]-10-phenyl-10H-phenoxaphosphine] | 0.66 | 2.30 | 16.5 | 
O=C(N=P1(c2ccccc2)c2ccccc2Oc2ccccc21)OCc1ccccn1 [10,10-Dihydro-10-phenyl-10-[[(2-pyridylmethoxy)carbonyl]imino]-10H-phenoxaphosphine] |  |  |  | Potassium (urinary) ([1]; 50 mg/kg by gavage): 0.74 MEQ/5 Hours; Sodium (urinary) ([1]; 50 mg/kg by gavage): 1.26 MEQ/5 Hours; Volume (urine) ([1]; 50 mg/kg by gavage): 10.8 mL
O=C(N=P1(c2ccccc2)c2ccccc2Oc2ccccc21)OCC1CC1 [10-[[(Cyclopropylmethoxy)carbonyl]imino]-10,10-dihydro-10-phenyl-10H-phenoxaphosphine] | 0.75 | 1.41 | 10.8 | 
CC(C)COC(=O)N=P1(c2ccccc2)c2ccccc2Oc2ccccc21 [10,10-Dihydro-10-[[(2-methylpropoxy)carbonyl]-imino]-10-phenyl-10H-phenoxaphosphine] | 0.64 | 1.63 | 12.8 | 

Reference: US4777290A, “10,10-dihydro-10-[(substituted-carbonyl)imino]-10-phe nyl-10H-phenoxaphosphines” (American Cyanamid Company, priority 1987, dated 1988)
